# Publication PMC11509018, “Evaluation of the Role of Tanshinone I in an In Vitro System of Charcot-Marie-Tooth Disease Type 2N” (International Journal of Molecular Sciences, 2024)
# Target: T1, AlaRS R329H binding to Nrp1 (Homo sapiens, UniProt P49588, R329H)
# T1 construct: expressed in transfected cells
# T1 sequence (P49588 1-968 R329H): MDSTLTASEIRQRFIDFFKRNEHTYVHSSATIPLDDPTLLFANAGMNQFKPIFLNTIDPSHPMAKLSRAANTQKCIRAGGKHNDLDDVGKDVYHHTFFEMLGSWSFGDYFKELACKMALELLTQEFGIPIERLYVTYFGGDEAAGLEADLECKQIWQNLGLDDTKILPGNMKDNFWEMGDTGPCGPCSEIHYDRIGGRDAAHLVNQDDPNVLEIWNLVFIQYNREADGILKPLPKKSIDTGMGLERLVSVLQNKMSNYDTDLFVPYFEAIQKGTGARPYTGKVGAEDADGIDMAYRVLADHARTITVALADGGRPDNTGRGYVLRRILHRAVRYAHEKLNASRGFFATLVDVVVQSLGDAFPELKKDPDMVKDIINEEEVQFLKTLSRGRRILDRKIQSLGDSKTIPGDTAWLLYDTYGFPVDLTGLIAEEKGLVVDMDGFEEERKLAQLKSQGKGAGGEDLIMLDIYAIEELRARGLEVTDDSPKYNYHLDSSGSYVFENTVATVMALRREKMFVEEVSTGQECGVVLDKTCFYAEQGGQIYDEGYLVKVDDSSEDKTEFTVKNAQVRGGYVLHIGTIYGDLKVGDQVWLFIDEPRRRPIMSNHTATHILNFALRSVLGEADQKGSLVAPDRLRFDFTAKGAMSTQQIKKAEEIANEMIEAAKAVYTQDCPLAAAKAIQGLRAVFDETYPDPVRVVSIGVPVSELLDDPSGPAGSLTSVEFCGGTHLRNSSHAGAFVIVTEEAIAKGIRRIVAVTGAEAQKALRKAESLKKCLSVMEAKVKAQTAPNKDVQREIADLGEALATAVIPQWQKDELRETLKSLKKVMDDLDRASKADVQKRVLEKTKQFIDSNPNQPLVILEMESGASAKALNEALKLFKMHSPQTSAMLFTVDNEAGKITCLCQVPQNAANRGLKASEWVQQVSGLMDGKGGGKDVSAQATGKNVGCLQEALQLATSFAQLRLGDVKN
# Assay: Co-IP of HA-AlaRS mutant with Nrp1 in transfected cells
# Type: cell-based
# Conditions: 20 µM Tanshinone I for 24 h, ImageJ, average of three repeats
# Experimental: To further investigate whether Tanshinone I-induced conformational changes in AlaRS CMT mutants affect their interaction with Nrp1, Co-IP experiments were performed in cells treated with Tanshinone I. By comparing Co-IP results obtained before and after treatment, we assessed the influence of the drug on the binding strength and mode between the AlaRS CMT mutants and Nrp1. […] To confirm the direct effect of Tanshinone I on the interaction between AlaRS CMT mutants and Nrp1, pull-down experiments were performed. […] Given that the interaction between AlaRS mutants and Nrp1 is associated with disease progression in CMT, the ability of Tanshinone I to disrupt this binding highlights its potential to intervene in the pathogenic mechanisms of these diseases.
# Figure 7 The impact of Tanshinone I on the interaction between AlaRS mutants and Nrp1. (A) Co-IP assays were conducted to assess the binding between HA-AlaRS mutants and Nrp1, both with and without treatment with 20 µM Tanshinone I for 24 h. […] (C) Pull down assay was performed to detect the binding between AlaRS mutants and GST-Nrp1 b1 with or without 20 µM Tanshinone I. (D) Relative quantification statistics of the AlaRS mutants pulled down from the GST pull down experiments after Tanshinone I treatment were performed using ImageJ. (E) The cell viability of 293T and NSC34 cells treated with different concentrations of Tanshinone I was assessed using the CCK-8 assay over a 24 h period. TEXT PRINTED IN THE PICTURE: (B) Tanshinone I: Mean density band (N71Y): 0.60; Mean density band (G102R): 0.53; Mean density band (R326W): 0.50; Mean density band (R329H): 0.50; Mean density band (E337K): 0.62 | (D) Tanshinone I: Mean density band (N71Y): 0.82; Mean density band (G102R): 0.76; Mean density band (R326W): 0.84; Mean density band (R329H): 0.84; Mean density band (E337K): 0.90
# Total protein was extracted from cells using RIPA buffer (50 mM Tris-HCl pH 7.4, 150 mM NaCl, 1% NP40, 1 mM EDTA) supplemented with a protease and phosphatase inhibitor cocktail (Roche, Basel, Switzerland). After SDS-PAGE, the protein on the gel was transferred to a PVDF membrane (Bio-Rad, Hercules, CA, USA) and then blocked with 5% non-fat dry milk in TBST for 1 h. Then, the membranes were incubated with the indicated primary antibodies and corresponding HRP-conjugated secondary antibodies. Signals were detected using the Bio-Rad ChemiDoc system (Bio-Rad, Shanghai, China). The following antibodies were used: Flag (Ray antibody biotech, Beijing, China, 1:3000), HA (Ray antibody biotech, Beijing, China, 1:3000), and GAPDH (Ray antibody biotech, Beijing, China, 1:5000).
# To detect the binding of Nrp1 and AlaRS mutants in cells, whole-cell lysates (500 μg) were treated overnight with 2 μg of anti-Flag antibody in RIPA buffer. Next, Protein A/G agarose beads (#sc-2003, Santa Cruz Biotechnology, Santa Cruz, CA, USA) were applied to the lysates and the samples were further treated for 8–12 h with rotation. Samples were washed three times with RIPA buffer. Subsequently, the immunoprecipitations were resuspended into 2 × SDS-loading buffer. The samples were then boiled for 10 min and detected using Western blot. The experiment was repeated three times.
compound,measurement,value
Cc1coc2c1C(=O)C(=O)c1c-2ccc2c(C)cccc12 [Tanshinone I],"Mean density band (R329H), relative quantification of AlaRS mutant immunoprecipitated",0.50
